# Laboratory results as given in US8343912B2, “Antibiotic compositions for the treatment of gram negative infections” (priority 2008, dated 2013).
# “Also recorded” adds a separate entry of the source. Marks after values point to notes of the source that are not given here. Numbered stars: 1 amine (or outer) side, 2 acyl side, 3 side chain; on linkers, the order of the positions; unused ones are H or OH. Bridge positions count the residues as written; N and C are the ends. Square brackets hold non-standard residues; d marks the D form. Peptide text beside a SMILES is read from it. * marks the point of attachment. Octanoyl(6-Me) = CCC(C)CCCCC(=O)*; NH(2-ClPh) = Clc1ccccc1N*; Dab = NCC[CH](N)C(=O)O; CO = O=C([*:1])[*:2]
# Tests used:
# [1] = test system: P. aeruginosa #44; experiment: MIC, broth microdilution; assay type: cell-based, Pseudomonas aeruginosa; settings: for MIC against P. aeruginosa #44: Table 5, range of repeated tests
# Method: (§1) MIC testing was performed according to Clinical and Laboratory Standards Institute (CLSI) M7-A7 (2006) broth microdilution methods. Unless otherwise indicated, MIC values are provided in units of micrograms per milliliter.
# (§2) One day prior to testing, individual colonies were isolated by streaking onto rich, non-selective Tryptic Soy agar with 5% lysed sheeps blood (TSAB) with incubation at 35-37° C. for 18-24 hours.
# (§3) Cultures were prepared by touching 3-5 colonies into 3 mL of Cation adjusted Mueller Hinton Broth (caMHB) in a 14 mL tube (CaMHB was prepared and sterilized according to manufacturer's specifications). Cultures were grown at 37° C. 200 rpm for approximately four hours prior to density adjustment for addition to the MIC assay.
# (§4) OD600 of growing cultures was measured and adjusted to approximately 10^5 colony forming units per mL (CFU/mL) in caMHB for MIC inoculation (approximately OD600 0.001).
# (§5) Diluted cultures were used to inoculate 50 μL per well in broth microdilution assays (final volume 100 μl per well; compounds were prepared in two-fold dilutions).
# (§6) Plates were incubated 16-20 hrs at 37° C., with shaking at 200 rpm.
# (§7) OD600 was determined for all wells. Growth was defined as OD600>0.1. MICs were defined as the lowest concentration producing no visible turbidity (OD600<0.1).
# P. aeruginosa #44 or K. pneumoniae #21 were grown in cation adjusted Mueller Hinton Broth (caMHB) (catalog #B12322; Fisher Scientific, Pittsburgh, Pa.) at 37° C. MIC testing was performed according to Clinical and Laboratory Standards Institute [CLSI, formerly National Committee for Clinical Laboratory Standards (NCCLS), Wayne, Pa.] guidelines for broth microdilution.
# MIC testing was performed according to CLSI (formerly NCCLS) guidelines for broth microdilution.
# [2] = test system: A. baumannii #1570; experiment: Thigh infection in neutropenic mice; assay type: in vivo; settings: for Log10 CFU/mL thigh homogenate ± SD: thighs at 24 h; for ED−3log10 (dose for 3 log10 reduction in bacterial count vs water): thigh infection, sc, Compound 5 value corrected for lot potency 711 μg/mg
# Method: Infections were induced in neutropenic mice by […] the left thigh of each mouse. Compound 5, or a comparator drug, either polymyxin B, colistin or imipenem, were administered subcutaneously at 1 hour and 6 hours post-infection. Eighteen hours after the last treatment, mice were euthanized humanely; the infected thighs were removed, homogenized, serially diluted, and plated on agar. The bacterial burden was then quantitated by colony count. Compound 5, polymyxin B, colistin, and imipenem were evaluated for their ability to decrease the bacterial burden in the infected thighs compared with water-treated control mice.
# All the test compounds were dissolved in sterile water for administration by subcutaneous (sc) injection. A series of dilutions of test compounds were prepared in sterile water.
# Mice were made neutropenic by ip administration with 150 mg/kg cyclophosphamide on day-4, followed by a second ip dose of 100 mg/kg cyclophosphamide on day-1. A diluted exponential-phase growing culture of A. baumannii #1570 corresponding to 1×10^7 or 5×10^4 CFU respectively, in 0.2 mL of sterile saline, was injected into the left thigh of conscious mice on day 0. The actual concentration of bacteria in the inoculum was confirmed by determination of viable counts by dilution plating on tryptic soy agar plates. The number of CFU of bacteria was determined after an incubation of 16 hours at 37° C.
# Groups of five mice were used for each dose of the test compounds and the vehicle. Each group received sc injections of test compounds or vehicle at 1 hour post-infection, and then at 6 hours post-infection for a total of 2 doses. In each study, there were three to five dose groups per test compound. Eighteen hours after the last injection, the mice were euthanized by asphyxiation with CO2. The left thighs were removed aseptically, homogenized in 4 mL of distilled water and dilution plated on tryptic soy agar plates to quantify bacterial CFU. The number of CFU of bacteria in thighs was determined after an incubation of 16 hours at 37° C. (the CFU per milliliter of homogenate).
# The results were expressed as the geometric mean log10 CFU/mL±the standard deviation. The limit of detection was 10 CFU per mL of thigh homogenate. Thighs were considered sterile when no CFU were detected on the agar. The efficacy of the test compounds was assessed by comparing the number of log10 CFU/mL measured in the treated mice with control animals treated with vehicle (water). The efficacy of Compound 5 was also compared with the positive comparator antibiotics polymyxin B, colistin and imipenem-cilastatin.
# Dose response curves of test compounds were generated for each isolate. Regression lines were generated using Microsoft Excel to calculate the dose administered twice daily (BID) predicted to produce a 3 log10 reduction in bacterial count as compared to the water-treated control group [ED−3 log 10 (mg/kg, sc, BID)].
# [3] = test system: cynomolgus monkeys; experiment: Comparative 7 day repeat dose safety study, renal toxicity; assay type: in vivo, cynomolgus monkey; settings: for renal histologic findings: IV infusion; for nephrotoxicity compared with polymyxin B: equivalent antibacterial activity doses (75,000 to 112,500 IU/kg), FIG. 2
# Method: A comparative 7 day repeat dose safety study in cynomologous monkeys between polymyxin B and Compound 5 was performed.
# Animals were 2.52 kg to 3.77 kg and were 4.2 to 5.7 years old. During acclimation, a chronic femoral intravenous catheter was implanted into all animals to permit continuous infusion. The femoral vein catheter was routed subcutaneously to exit through a prepared incision in the interscapular region. Animals were fitted with jackets connected to flexible stainless steel tethers that protected the catheters.
# Monkeys were dosed twice or three times daily for seven days with control article (0.9% Sodium Chloride for Injection, USP), 25000 IU/kg Compound 5, 37500 IU/kg Compound 5, or 37500 IU/kg PMB (Alpharma, lot number A1411079). Each administration was given via a targeted 30-minute intravenous infusion.
# The following parameters were evaluated: daily clinical observations and qualitative food consumption, body weight (twice prior to the first dosing and at necropsy), urinalysis, hematology, coagulation, serum chemistry, toxicokinetics, gross pathology, organ weights, and histopathology of the kidneys and injection sites, and of the liver and sciatic nerves of control and high dose groups. Animals were evaluated through Study Day 7 and then terminated.
# FIG. 2 is a scatter plot showing nephrotoxicity data measured as a cumulative score based upon tubular degeneration, tubular regeneration, tubular dilatation, and tubular casts. Each category was scored on a basis from 0 to 4 based on the severity of each finding.
# For comparison of Compound 5 and polymyxin B, the nephrotoxicity was measured as a cumulative score based upon tubular degeneration, tubular regeneration, tubular dilatation, and tubular casts. Each category was scored on a basis from 0 to 4 based on the severity of each finding and individual monkeys are represented in the FIG. 2.
# [4] = test system: K. pneumonia 21; experiment: MIC, broth microdilution; assay type: cell-based, Klebsiella pneumoniae; settings: Table 3B
# Method: as §1, §2, §3, §4, §5, §6, §7
# [5] = 2.0 mg/kg BID sc, 1 and 6 h post-infection, water control 7.75
smiles,measurement,setting,value
"CCC(C)CCCCC(=O)NC(CCN)C(=O)NC(C(=O)NC(CCN)C(=O)NC1CCNC(=O)C(C(C)O)NC(=O)C(CCN)NC(=O)C(CCN)NC(=O)C(CC(C)C)NC(=O)C(Cc2ccccc2)NC(=O)C(CCN)NC1=O)C(C)O (stereo not shown) [Polymyxin B, polymyxin B, reference compound] ({Octanoyl(6-Me)}-[Dab]T[Dab][Dab][Dab]FL[Dab][Dab]T; lactam 4-C; configuration not given here)",MIC against P. aeruginosa #44,[1],1-2 micrograms/ml
same,Log10 CFU/mL thigh homogenate ± SD,[2]; [5],6.04 ± 1.10 Log10 CFU/mL
same,Log10 CFU/mL thigh homogenate ± SD,[2]; 4.0 mg/kg BID sc,4.94 ± 1.03 Log10 CFU/mL
same,Log10 CFU/mL thigh homogenate ± SD,[2]; 8.0 mg/kg BID sc,4.07 ± 0.41 Log10 CFU/mL
same,Log10 CFU/mL thigh homogenate ± SD,[2]; 12.0 mg/kg BID sc,4.19 ± 0.59 Log10 CFU/mL
same,ED−3log10 (dose for 3 log10 reduction in bacterial count vs water),[2],"4.8 mg/kg, BID"
same,serum creatinine and BUN concentrations,"[3]; 75,000 IU/kg/day, 7 days",mild increases
same,renal histologic findings,"[3]; 75,000 IU/kg/day, 7 days","renal tubular histology similar to findings from animals receiving 112,500 IU/kg/day of Compound 5"
same,serum creatinine and blood urea nitrogen concentrations,"[3]; 112,500 IU/kg/day, 7 days",elevations
same,renal histologic findings,"[3]; 112,500 IU/kg/day, 7 days",involvement of a majority of cortical and some medullary tubules containing necrotic or degenerate cells
"CC(C)C[C@@H]1NC(=O)[C@@H](Cc2ccccc2)NC(=O)[C@H](CCN)NC(=O)[C@@H](NC(=O)[C@H](CCN)NC(=O)[C@@H](NC(=O)[C@H](CCN)NC(=O)Nc2ccccc2Cl)[C@@H](C)O)CCNC(=O)[C@H]([C@@H](C)O)NC(=O)[C@H](CCN)NC(=O)[C@H](CCN)NC1=O [Compound 5, (S)-4-amino-N-((2S,3R)-1-((S)-4-amino-1-oxo-1-((3S,6S,9S,12S,15R,18S,21S)-6,9,18-tris(2-aminoethyl)-15-benzyl-3-((R)-1-hydroxyethyl)-12-isobutyl-2,5,8,11,14,17,20-heptaoxo-1,4,7,10,13,16,19-heptaazacyclotricosan-21-ylamino)butan-2-ylamino)-3-hydroxy-1-oxobutan-2-yl)-2-(3-(2-chlorophenyl)ureido)butanamide] ({NH(2-ClPh)-CO}-[Dab]T[Dab][Dab][Dab][dF]L[Dab][Dab]T; lactam 4-C)",MIC P. aeruginosa 44,[1]; Table 3B,1 micrograms/mL
same,MIC against P. aeruginosa #44,[1],1-2 micrograms/ml
same,MIC K. pneumonia 21,[4],2 micrograms/mL
same,Log10 CFU/mL thigh homogenate ± SD,[2]; [5],6.93 ± 0.56 Log10 CFU/mL
same,Log10 CFU/mL thigh homogenate ± SD,[2]; 4.0 mg/kg BID sc,6.64 ± 0.55 Log10 CFU/mL
same,Log10 CFU/mL thigh homogenate ± SD,[2]; 8.0 mg/kg BID sc,5.06 ± 0.80 Log10 CFU/mL
same,Log10 CFU/mL thigh homogenate ± SD,[2]; 12.0 mg/kg BID sc,3.97 ± 0.34 Log10 CFU/mL
same,ED−3log10 (dose for 3 log10 reduction in bacterial count vs water),[2],"6.4^b mg/kg, BID"
same,renal histologic findings,"[3]; 75,000 IU/kg/day, 7 days",very minimal histologic changes
same,renal histologic findings,"[3]; 112,500 IU/kg/day, 7 days",increases in numbers and severity of cortical and medullary tubules containing necrotic or degenerative cells
same,nephrotoxicity compared with polymyxin B,[3],notably less severe nephrotoxicity; also recorded: markedly less nephrotoxic
same,nephrotoxicity compared with polymyxin B,[3]; listed as compound 5,reduced renal toxicity
